Assays:
[1] = tested on: PSMA-positive human prostate cancer cells; conditions: DUPA-(99m)Tc, ref [8]; cited from earlier work
[2] = biological target: T1, folate receptor (FR) on KB cells (Homo sapiens, UniProt P15328); test: Binding of FITC-Folate conjugates to FR positive KB cancer cells, fluorescence/confocal microscopy
T1 construct: endogenous in cells; host or cells: KB cells
Procedure: (§1) The ability of the FITC-Folate and FITC-(PEG)12-Folate conjugates to bind folate receptor (FR) positive cancer cells was next investigated. FR positive cells lines L1210A (Mouse lymphocytic leukemia) and KB (Mouth epidermal carcinoma), which are FR positive cell lines, were used to test the binding affinity of the FITC-Folate conjugates. Briefly, 3-4×10^4 cancer cells were prepared to perform binding affinity assays with FITC-Folate and FITC-(PEG)12-Folate conjugates. With two different concentrations (e.g. 20 nM, 70 nM), the two FITC-Folate conjugates were incubated with cancer cells at room temperature for 1 hour. Since both FITC-Folate conjugates have fluorescence, the binding ability of FITC-Folate conjugates to cancer cells can be detected by florescence microscopy. After two washes with 1× phosphate buffered saline (PBS) to remove all unbound compound, the cancer cells were observed by confocal microscope. In order to specify whether FITC-Folate conjugates bind to cancer cells via FR on the surface of cancer cells, Folate Acid was also incubated with cancer cells as a competition compound. […] As shown in competition panel, addition of 50× excess folate acid blocked FITC-Folate binding with these cancer cells, which indicates the specific binding is between folate acid and FR on cell surface.

FR+ KB cells = test: 51Chromium release cytotoxicity assay of anti-FITC CAR-expressing T cells against KB cells; assay type: cell-based, human; conditions: 70 nM conjugate, effector:target 20:1, 4-10 hours
FR+ L1210A cells = test: 51Chromium release cytotoxicity assay of anti-FITC CAR-expressing T cells against L1210A cells; assay type: cell-based, mouse; conditions: 70 nM conjugate, effector:target 20:1, 4-10 hours
Procedure: In order to explore whether CAR-expressing T cells can kill cancer cells, ^51Chromium release assays were conducted. In this assay, cancer cells are labeled with ^51Cr. When cancer cells are lysed, ^51Cr would be released from cancer cells to supernatant. By measuring ^51Cr in supernatant, the number of cancer cells killed can be determined.
First, target cancer cells L1210A were incubated in 50 μL growth medium containing 50 μCi ^51Chromium to get labeled. After washing with PBS×3, L1210A cells were resuspended and incubated at 37° C. for 1 hour in the growth medium containing 70 nM FITC-Folate conjugate or FITC-(PEG)12-Folate conjugate. After washing away excess FITC conjugates, 5×10^3 target cancer cells were added in each well of 96-well plates. […] After incubation for 4-10 hours, 20 μL aliquots of cell-free supernatant were harvested and ^51Cr in the supernatants was measured with a scintillation counter or a γ-counter.
Percent specific cytolysis was calculated using following formula: % cytolysis=(Experimental ^51Cr release−control ^51Cr release)/(Maximum ^51Cr release−control ^51Cr release)×100
Control wells contained only target cancer cells, effector T cells were never added in these wells. Maximum ^51Cr release was determined by measuring ^51Cr release from labeled target cells treated with 2.5% SDS to lyse all cells.

[3] = tested on: anti-FITC scFv in CAR4-1BBZ on transduced T cells; test: Binding of FITC-Folate conjugates to CAR4-1BBZ transduced T cells, confocal microscopy; design: species or system mouse
Procedure: To examine the ability of the transduced T cells containing CAR4-1BBZ to bind the FITC-Folate conjugates, binding assays with the FITC-Folate conjugate and the FITC-(PEG)12-Folate conjugate were performed. Since the excitation wavelength of FITC in the FITC-Folate conjugates overlapped with copGFP in CAR4-1BB transduced T cells, it was difficult to distinguish between FITC binding and copGFP expression. Therefore, an anti-Folate Acid (FA) monoclonal antibody and a fluorephore (excitation 640 nm)-labeled anti-mouse IgG antibody were utilized.
First, the transduced T cells were incubated with FITC-Folate or FITC-(PEG)12-Folate conjugates at room temperature for 1 hour. After washing with 1×PBS, transduced T cells were incubated with anti-FA monoclonal antibody (1:15 dilution) for 1 hour. After another washing with 1×PBS, transduced T cells further were incubated with fluorophore (excitation 640 nm) labeled anti-mouse IgG antibody (1:50 dilution). Finally, unbound antibodies were washed away and a confocal microscope was used to confirm the FITC-Folate and FITC-(PEG)12-Folate conjugates binding ability. All data was analyzed by Olympus Fluoview software. […] Simultaneously, binding of FITC-Folate and FITC-(PEG)12-Folate conjugates (arrows) were also detected on the CAR4-1BBZ transduced T cells.

[4] = tested on: folate receptor (FR) on L1210A cells; test: Binding of FITC-Folate conjugates to FR positive L1210A cancer cells, fluorescence/confocal microscopy; design: species or system mouse
Procedure: as §1

[5] = 20 nM, 70 nM, room temperature 1 hour

T1 sequence (P15328 25-234): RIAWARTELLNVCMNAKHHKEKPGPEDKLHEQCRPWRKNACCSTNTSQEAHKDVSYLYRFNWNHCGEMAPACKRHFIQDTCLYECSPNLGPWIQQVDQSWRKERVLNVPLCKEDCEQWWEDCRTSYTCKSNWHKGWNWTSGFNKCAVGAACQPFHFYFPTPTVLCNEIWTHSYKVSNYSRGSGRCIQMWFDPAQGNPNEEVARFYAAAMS

SMILES	Kd [1]	binding to KB cells via FR [2, 5]	binding to KB cells in the presence of competitor ([2]; 50× excess folate acid)	cellular localization in KB cells (internalization) ([2]; FIG. 3A, 3C)	cancer cell cytolysis by CAR-expressing T cells in the presence of conjugate (FR+ KB cells)	cancer cell cytolysis by CAR-expressing T cells in the presence of conjugate (FR+ L1210A cells)	binding to non-transduced T cells ([3]; non-transduced T cells, same protocol)	binding to anti-FITC in CAR4-1BBZ transduced T cells ([3]; room temperature 1 hour, detected with anti-FA antibody and labeled anti-mouse IgG)	binding to L1210A cells via FR [4, 5]	binding to L1210A cells in the presence of competitor ([4]; 50× excess folate acid)
O=C(O)CCC(NC(=O)NC(CCC(=O)O)C(=O)O)C(=O)O (stereo not shown) [DUPA, 2-[3-(1,3-dicarboxypropyl)ureido] pentanedioic acid]	14 nM									
Nc1nc2ncc(CNc3ccc(C(=O)N[C@@H](CCC(=O)NCCNC(=S)Nc4ccc(-c5c6ccc(=O)cc-6oc6cc(O)ccc56)c(C(=O)O)c4)C(=O)O)cc3)nc2c(=O)[nH]1 (single isomer, unassigned) [FITC-Folate]		can bind	blocked	internalized into KB cell cytoplasm	~18%	~29%	not to non-transduced T cells	successfully bound	can bind	blocked

— patent US12150981B2, “Chimeric antigen receptor-expressing T cells as anti-cancer therapeutics” (Purdue Research Foundation, priority 2012, dated 2024)
